Consider 16 compounds from article PMC10708259 (Molecules, 2023).

The target in test [1] is T1, human μ-opioid receptor (OPRM1) (Homo sapiens, UniProt P35372).
T1 construct: host or cells: cAMP Hunter CHO-K1
The test can be described thus: cell-based. The class given is cell-based. The conditions noted are these: for EC50: MOR Agonist EC50 ± SEM; for Emax: read-out: MOR Agonist %Emax ± SEM.

Test [2] has as its target human δ-opioid receptor (OPRD1) (Homo sapiens, UniProt P41143). The test can be described thus: Forskolin-induced cAMP accumulation assay, DOR agonist mode. The conditions noted are these: for Emax: CHO-K1, read-out: DOR Agonist %Emax ± SEM; for DOR efficacy in words: cAMP assay. In general terms: cAMP levels reflect the balance of adenylyl cyclase and phosphodiesterase activity.

In test [3] the target is human κ-opioid receptor (OPRK1) (Homo sapiens, UniProt P41145). The test can be described thus: Forskolin-induced cAMP accumulation assay, KOR agonist mode. The following applies: for Emax: CHO-K1, read-out: KOR Agonist %Emax ± SEM.
Sequence of human κ-opioid receptor (OPRK1) (P41145 whole entry): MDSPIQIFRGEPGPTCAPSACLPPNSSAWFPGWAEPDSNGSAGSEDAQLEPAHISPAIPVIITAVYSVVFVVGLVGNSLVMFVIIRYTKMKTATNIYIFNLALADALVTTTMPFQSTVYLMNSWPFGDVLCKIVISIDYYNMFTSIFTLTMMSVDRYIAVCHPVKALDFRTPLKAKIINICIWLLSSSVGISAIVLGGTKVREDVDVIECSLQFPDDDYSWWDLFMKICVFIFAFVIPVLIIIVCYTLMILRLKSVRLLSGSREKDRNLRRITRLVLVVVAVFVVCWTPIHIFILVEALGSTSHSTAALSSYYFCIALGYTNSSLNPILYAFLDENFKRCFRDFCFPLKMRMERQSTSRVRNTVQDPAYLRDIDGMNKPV

T1 sequence (P35372 whole entry): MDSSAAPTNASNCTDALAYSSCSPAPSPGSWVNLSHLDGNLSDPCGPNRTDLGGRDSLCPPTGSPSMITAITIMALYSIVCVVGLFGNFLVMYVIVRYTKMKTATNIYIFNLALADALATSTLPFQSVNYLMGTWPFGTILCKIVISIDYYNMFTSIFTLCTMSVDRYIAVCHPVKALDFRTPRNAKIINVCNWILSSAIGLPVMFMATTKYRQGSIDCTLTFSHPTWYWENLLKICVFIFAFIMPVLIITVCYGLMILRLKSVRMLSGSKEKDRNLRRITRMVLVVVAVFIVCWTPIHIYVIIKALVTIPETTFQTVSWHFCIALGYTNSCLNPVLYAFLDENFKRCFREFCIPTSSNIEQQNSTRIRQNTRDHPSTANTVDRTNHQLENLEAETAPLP
Sequence of human δ-opioid receptor (OPRD1) (P41143 whole entry): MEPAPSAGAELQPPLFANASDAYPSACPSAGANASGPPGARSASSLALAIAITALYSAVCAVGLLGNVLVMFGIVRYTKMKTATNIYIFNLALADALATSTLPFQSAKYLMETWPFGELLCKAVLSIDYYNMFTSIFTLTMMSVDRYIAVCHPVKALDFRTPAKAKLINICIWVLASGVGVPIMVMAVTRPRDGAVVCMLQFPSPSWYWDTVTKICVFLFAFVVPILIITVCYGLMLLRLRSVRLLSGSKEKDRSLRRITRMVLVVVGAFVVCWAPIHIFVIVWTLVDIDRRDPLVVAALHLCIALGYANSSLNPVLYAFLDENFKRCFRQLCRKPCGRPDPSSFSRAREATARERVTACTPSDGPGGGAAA

On to `C[C@@H]1[C@@H]2C(O)c3ccc(O)cc3[C@@]1(C)CCN2CCc1ccccc1` (single isomer, unassigned; (+)) [(+)-36], for which the EC50 in test [1] was 25.2 nM; in test [2], 1910 ± 232 nM; in test [3], more than 10000 nM. Besides, the results for the Emax in test [1] and in test [2] were 103% and 97%, respectively.
On to `C=C1c2ccc(O)cc2[C@@]2(C)CCN(CCc3ccccc3)[C@@H]1[C@H]2C` [(+)-38, (2R,6S,11S)-6,11-Dimethyl-1-methylene-3-phenethyl-1,2,3,4,5,6-hexahydro-2,6-methanobenzo[d]azocin-8-ol], for which the EC50 in test [1] was determined as 70 nM; in test [2] it was 978 ± 374 nM; in test [3], 1180 ± 46 nM. In addition, the maximum response (Emax) in test [1] is 102%; in test [2] it was 92%; in test [3], 53%.
As for `C=C1c2ccc(O)cc2[C@]2(C)CCN(CCc3ccccc3)[C@H]1[C@@H]2C` [(−)-38, (2S,6R,11R)-6,11-Dimethyl-1-methylene-3-phenethyl-1,2,3,4,5,6-hexahydro-2,6-methanobenzo[d]azocin-8-ol], the “MOR potency relative to morphine (times more potent than morphine)” value in test [1] is given as “about 25 times”. For the same compound, the EC50 in test [1] is 0.23 nM; in test [2], 4.9 ± 3 nM; in test [3], 9.5 ± 2 nM. Moreover, the figures for the Emax in test [1], in test [2] and in test [3] were 101%, 89% and 57 ± 45.6%, respectively.
Turning to `CC1C2Cc3ccc(O)cc3C1(C)CCN2CCc1ccc([N+](=O)[O-])cc1` [Compound 3, (1R,5R,9R)-6,11-Dimethyl-3-(4-nitrophenethyl)-1,2,3,4,5,6-hexahydro-2,6-methanobenzo[d]azocin-8-ol], in test [1], the EC50 turned out to be 0.3 nM and the Emax was 101%. Further, in test [2], a half-maximal response (EC50) required 2.7 ± 1 nM, the maximal response (Emax) is 88% and the “DOR efficacy in words” value is given as “partial DOR agonists”. In test [3], the EC50 was found to be 13 ± 0.5 nM and the Emax was 46%.
On to `CC1C2Cc3ccc(O)cc3C1(C)CCN2CCc1cccc([N+](=O)[O-])c1` [Compound 4, (1R,5R,9R)-6,11-Dimethyl-3-(3-nitrophenethyl)-1,2,3,4,5,6-hexahydro-2,6-methanobenzo[d]azocin-8-ol], for which, in test [1], a half-maximal effect (EC50) was put at 26 nM and the Emax was 71%.
For `CC1C2Cc3ccc(O)cc3C1(C)CCN2CCc1ccccc1F` [Compound 8, (1R,5R,9R)-6,11-Dimethyl-3-(2-fluorophenethyl)-1,2,3,4,5,6-hexahydro-2,6-methanobenzo[d]azocin-8-ol], the “MOR potency relative to morphine (times more potent than morphine)” value in test [1] was “about 30 times”. The results for the EC50 in test [1], in test [2] and in test [3] were 0.2 nM, 6 ± 2 nM and 6 ± 1 nM, respectively. In addition, the Emax in test [1] was 101%; in test [2], 87%; in test [3] it was 45%.
Turning to `CC1C2Cc3ccc(O)cc3C1(C)CCN2CCc1ccc(C(F)(F)F)cc1` [Compound 9, (1R,5R,9R)-6,11-Dimethyl-3-(4-trifluoromethylphenethyl)-1,2,3,4,5,6-hexahydro-2,6-methanobenzo[d]azocin-8-ol], the figures for the EC50 in test [1], in test [2] and in test [3] were 2 nM, 3 ± 1 nM and 23 ± 5 nM, respectively. In addition, the figures for the Emax in test [1], in test [2] and in test [3] were 102%, 72% and 100%, respectively. Besides, the “DOR efficacy in words” value in test [2] is given as “partial DOR agonists”.
With `CC1C2Cc3ccc(O)cc3C1(C)CCN2CCc1cccc(C(F)(F)F)c1` [Compound 10, (1R,5R,9R)-6,11-Dimethyl-3-(3-trifluoromethylphenethyl)-1,2,3,4,5,6-hexahydro-2,6-methanobenzo[d]azocin-8-ol], in test [1], it took 167 nM to reach a half-maximal effect (EC50) and the Emax was 63%.
Consider `CC1C2Cc3ccc(O)cc3C1(C)CCN2CCc1ccccc1C(F)(F)F` [Compound 11, (1R,5R,9R)-6,11-Dimethyl-3-(2-trifluoromethylphenethyl)-1,2,3,4,5,6-hexahydro-2,6-methanobenzo[d]azocin-8-ol], for which the EC50 in test [1] was 6 nM; in test [2], 24 ± 5 nM; in test [3], 36 ± 3 nM. The maximal effect (Emax) in test [1] is 102%; in test [2] it was 77%; in test [3], 72%.
With `CC1C2Cc3ccc(O)cc3C1(C)CCN2CCc1ccc(Br)cc1` [Compound 12, (1R,5R,9R)-6,11-Dimethyl-3-(4-bromophenethyl)-1,2,3,4,5,6-hexahydro-2,6-methanobenzo[d]azocin-8-ol], in test [1], the EC50 is 0.7 nM and the maximal response (Emax) was 102%. Further, in test [2], the EC50 was 1.1 ± 0.3 nM, the Emax is 89% and the “DOR efficacy in words” value is “partial DOR agonists”. In test [3], the EC50 was found to be 5 ± 2 nM and the Emax is 100%.
As for `CC1C2Cc3ccc(O)cc3C1(C)CCN2CCc1ccccc1Br` [Compound 14, (1R,5R,9R)-6,11-Dimethyl-3-(2-bromophenethyl)-1,2,3,4,5,6-hexahydro-2,6-methanobenzo[d]azocin-8-ol], the EC50 in test [1] is 2 nM; in test [2], 13 ± 2 nM; in test [3], 16 ± 2 nM. Also, the figures for the maximal response (Emax) in test [1], in test [2] and in test [3] were 101%, 89% and 80%, respectively.
Take `CC1C2Cc3ccc(O)cc3C1(C)CCN2CCc1ccc(Cl)cc1` [Compound 15, (1R,5R,9R)-6,11-Dimethyl-3-(4-chlorophenethyl)-1,2,3,4,5,6-hexahydro-2,6-methanobenzo[d]azocin-8-ol]: the values for the EC50 in test [1], in test [2] and in test [3] were 1.3 nM, 1.2 ± 0.5 nM and 5 ± 1 nM, respectively. The Emax is 103% in test [1], 89% in test [2] and 97% in test [3]. Further, the “DOR efficacy in words” value in test [2] was “partial DOR agonists”.
Turning to `CC1C2Cc3ccc(O)cc3C1(C)CCN2CCc1ccccc1Cl` [Compound 17, (1R,5R,9R)-6,11-Dimethyl-3-(2-chlorophenethyl)-1,2,3,4,5,6-hexahydro-2,6-methanobenzo[d]azocin-8-ol], the EC50 in test [1] is 1.4 nM; in test [2], 15 ± 4 nM; in test [3] it was 8 ± 1 nM. The Emax in test [1] is 101%; in test [2], 87%; in test [3], 57%.
For `C[C@H]1[C@H]2Cc3ccc(O)cc3[C@]1(C)CCN2CCCc1ccccc1` [Compound 24, (1R,5R,9R)-6,11-Dimethyl-3-(phenylpropyl)-1,2,3,4,5,6-hexahydro-2,6-methanobenzo[d]azocin-8-ol], in test [1], the “MOR agonist potency / efficacy in words” value is reported as “little or no potency”, the EC50 stood at 69 nM and the Emax was 101%.
Taken in the same sequence, the figures for `CC1C2Cc3ccc(O)cc3C1(C)CCN2CC=Cc1ccccc1` [Compound 25, (1R,5R,9R)-6,11-Dimethyl-3-(cinnamyl)-1,2,3,4,5,6-hexahydro-2,6-methanobenzo[d]azocin-8-ol] were “little or no potency”, 244 nM and 101%.
Regarding `C[C@H]1[C@H]2Cc3ccc(O)cc3[C@]1(C)CCN2CCCc1ccc([N+](=O)[O-])cc1` [Compound 31, (1R,5R,9R)-6,11-Dimethyl-3-(3-(4-nitrophenyl)propyl)-1,2,3,4,5,6-hexahydro-2,6-methanobenzo[d]azocin-8-ol], in test [1], the “MOR agonist potency / efficacy in words” value was “little or no potency” and the EC50 was not below 10000 nM.

For orientation: EC50 means the concentration that produces a half-maximal response. High values mean a less potent agent, low ones a more potent agent. For orientation: Emax means the size of the effect at its maximum, as opposed to the concentration needed.
